Results taken from patent publication US8748572B2, “RNase a peptides, fragments and uses thereof” (priority 2006, dated 2014).

B1: hPRI: human placental RNase inhibitor (Boehringer Mannheim) (protein)
chain: SLDIQSLDIQCEELSDARWAELLPLLQQCQVVRLDDCGLTEARCKDISSALRVNPALAELNLRSNELGDVGVHCVLQGLQTPSCKIQKLSLQNCCLTGAGCGVLSSTLRTLPTLQELHLSDNLLGDAGLQLLCEGLLDPQCRLEKLQLEYCSLSAASCEPLASVLRAKPDFKELTVSNNDINEAGVRVLCQGLKDSPCQLEALKLESCGVTSDNCRDLCGIVASKASLRELALGSNKLGDVGMAELCPGLLHPSSRLRTLWIWECGITAKGCGDLCRVLRAKESLKELSLAGNELGDEGARLLCETLLEPGCQLESLWVKSCSFTAACCSHFSSVLAQNRFLLELQISNNRLEDAGVRELCQGLGQPGSVLRVLWLADCDVSDSSCSSLAATLLANHSLRELDLSNNCLGDAGILQLVESVRQPGCLLEQLVLYDIYWSEEMEDRLQALEKDKPSLRVIS

Experiments:
E. coli DH5α = assay: bactericidal colony-forming assay, E. coli; format: cell-based, Escherichia coli; conditions: free synthetic peptide; for LD99: E. coli
Protocol: FIGS. 5 A & B are graphs showing the bactericidal activity of rRNases A-1 and A-2. In panel (A) E. coli DH5α and in panel (B) S. aureus 502A were re-suspended in 100 mM sodium phosphate buffer, pH 7.4, and incubated with the indicated concentrations of chicken leukocyte RNase A-1 (open squares) and A-2 (closed circles) for 4 h at 37° C., plated on RNase-free LB agar, and grown overnight for colony counts.
RNase A polypeptides and fragments according to the invention that have bactericidal activity are particularly preferred for use in the treatment methods of the invention. The bactericidal and bacteriostatic activity of a particular RNase A polypeptides or fragments can be assessed by known protocols, such as that described in the methods section and the following described protocol, herein referred to as “a standard bacterial colony formation assay.” Bactericidal assays are well-described in the art, and are performed as described previously, and as exemplified in Examples 3-6. Briefly, an aliquot from a single bacterial colony overnight culture grown in Luria-Beitani (LB) broth is diluted 1:100 in sodium phosphate, pH 7.4, collected by centrifugation, and resuspended in sodium phosphate, pH 7.4. An aliquot of bacteria in buffer are incubated for 4 hr at 37° C. with recombinant protein or peptide at concentrations indicated, or diluent control and were then diluted 10, 100, or 1000-fold prior to plating on LB agar for overnight growth for colony counts.
Next, the bactericidal activity of chicken leukocyte RNases were examined using a colony-forming assay as previously described for eosinophil cationic protein [28]. […] E. coli was more susceptible to the bactericidal activity of leukocyte rRNase A-2 than was S. aureus, as 5 μM rRNase A-2 reduced the colony count of E. coli 10^7-fold, while reducing the colony count of S. aureus, only 100-fold. Recombinant RNase A-1 had no effect on colony number of E. coli or S. aureus concentrations up to and including […].
Bactericidal assays were performed as described previously with modifications. Briefly, 100 microliters from a single bacterial colony overnight culture grown in Luria-Bertani (LB) broth was diluted 1:100 in 100 mM sodium phosphate, pH 7.4, collected by centrifugation, and resuspended in 1 ml sodium phosphate, pH 7.4. Ten microliters of bacteria in buffer are incubated for 4 hr at 37° C. with 10 microliters recombinant protein or peptide at concentrations indicated, or diluent control and were then diluted 10, 100, or 1000-fold prior to plating on LB agar for overnight growth for colony counts. All points were determined in triplicate.

isoelectric point = format: physicochemical
[1] = test system: Salmonella enterica serovar pullorum; assay: bactericidal assay on natural pathogen; format: cell-based; conditions: free peptide
Excerpt: FIG. 11 is a graph showing that the domain III peptide is bactericidal for S. enterica serovar pullorum which is a natural pathogen of domestic poultry. At the highest concentration tested, 100 micromolar, RNase A-2 domain III reduces the colony count from 100-1000 fold (2-3 logs).
The bactericidal actions of the A-2 domain sequences on natural pathogens was explored. The bactericidal activity of the leukocyte RNase A-2 domain III peptide on the natural pathogen Salmonella enterica serovar pullorum was determined using the bactericidal assays as previously described. S. enterica is a gram negative pathogen isolated initially from domestic poultry and is as such a natural target pathogen for a bactericidal agent isolated from chicken granulocytes. […] At the highest concentration tested, 100 micromolar, RNase A-2 domain III reduces the colony count from 100-1000 fold (2-3 logs). Thus, the A-2 domain sequences are useful bactericidal agents against natural pathogens.
Bactericidal assays were performed as described previously with modifications. Briefly, 100 microliters from a single bacterial colony overnight culture grown in Luria-Bertani (LB) broth was diluted 1:100 in 100 mM sodium phosphate, pH 7.4, collected by centrifugation, and resuspended in 1 ml sodium phosphate, pH 7.4. […] All points were determined in triplicate.

[2] = test system: Gallus gallus leukocyte RNases; assay: RNase activity with human placental RNase inhibitor; format: biochemical; conditions: preincubation with 200 U hPRI, yeast tRNA substrate, pH 7.0
Protocol: FIGS. 4 A-D are graphs showing the ribonucleolytic activity of recombinant leukocyte RNases. (A) is a graph showing the optimum pH for RNase activity. Enzymatic activity was determined with 50 pmol rRNase A-1 (open squares) and rRNase A-2 (closed circles) that was incubated with 250 μg/ml yeast tRNA in 40 mM sodium phosphate buffer at the pHs indicated. Measurements of A260 per time were converted to pmol/s as described in reference 28 and Methods. (B) is a graph showing the initial rates for RNase activity. Enzymatic activity was determined as described in (A) with 40 mM sodium phosphate buffer, pH 7.0. (C) is a graph showing the substrate preference for RNase activity. […] A260 was measured after precipitation of undigested RNA at each of the time points indicated. […] RNase activity was measured with […] of bovine pancreatic RNase (left) or […] rRNase A-1 and rRNase A-2 (right) with 250 μg/ml of yeast tRNA as substrate with (+) or without (−) 200 U human placental RNase inhibitor (hPR1) in 40 mM sodium phosphate buffer, pH 7.0. […]
The ribonuclease (RNase) assay with yeast tRNA substrate has been described in detail elsewhere. […] In experiments in which the pH optimum was to be determined, 40 mM sodium phosphate buffers of pH 5.0, 5.5, 6.0, 6.5, 7.4 or 8.0 were used instead of the buffer of pH 7.0. […]

Molecule | bactericidal activity of free peptide against E. coli (in words) (E. coli DH5α) | LD99 (E. coli DH5α) [µM] | isoelectric point (pI) (isoelectric point) | bactericidal activity (in words) [1] | inhibition of RNase activity [2]
RYSGNQFNRRVRVGCRG [A-2 domain III peptide] | active | 10 | 12.3 | bactericidal | –
SYTGNQFNHRVRVGCWG [A-1 domain III] | no significant activity | – | 9.9 | – | –
TRIRTRFHT [scrambled domain II peptide] | reduced the colony count of E. coli to the same degree as the wild type A-2 domain II peptide | – | – | – | –
TTRRHFRIT [A-2 domain II peptide] | reduced colony count of E. coli in a dose-dependent manner | 200 | 12.8 | – | –
B1 | – | – | – | – | completely inhibited
